Measurements: PubChem BioAssay AID1259411 (Chemical Carcinogenesis Research Information System (CCRIS), 2018)
Calls of active or inactive are those of the source. How the calls were made is not given here.

Tested on: rodent carcinogenicity bioassays, tumor incidence
Test: CCRIS carcinogenicity studies
Conditions: Species: RAT
How it was run: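 Archive of carcinogenicity, mutagenicity, tumor promotion and tumor inhibition results drawn from journals, NCI reports and other sources, expert-reviewed; covers 1985-2011 and is no longer updated.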

Measured: carcinogen call

[Cl][Cd][Cl]
active: Strain/Sex: WISTAR/FEMALE, Route: INHALATION, Dose: 0, 30 UG/M3 AEROSOL 22 HR/D 7 D/WK FOR 18 MO (STUDY DURATION: 31 MO), Tumor Site: Type of Lesion: LUNG: ALVEOLAR/BRONCHIOLAR ADENOMA, SQUAMOUS CELL CARCINOMA active; positive | Strain/Sex: WISTAR/FEMALE, Route: INHALATION, Dose: 0, 90 UG/M3 22 HR/D 7 D/WK FOR 6 MO (STUDY DURATION: 29 MO), Tumor Site: Type of Lesion: LUNG: ADENOCARCINOMA, SQUAMOUS CELL CARCINOMA active; positive | Strain/Sex: WISTAR/FEMALE, Route: INHALATION, Dose: 0, 90 UG/M3 22 HR/D 7 D/WK FOR 6 MO (STUDY DURATION: 29 MO), Tumor Site: Type of Lesion: LUNG: TUMOR active; positive | Strain/Sex: WISTAR/FEMALE, Route: INHALATION, Dose: 0, 90 UG/M3 AEROSOL 22 HR/D 7 D/WK FOR 6 MO (STUDY DURATION: 29 MO), Tumor Site: Type of Lesion: LUNG: ADENOCARCINOMA, SQUAMOUS CELL CARCINOMA active; positive | Strain/Sex: WISTAR/MALE, Route: INHALATION, Dose: 0, 12.5, 25, 50 UG/M3 AEROSOL 23 HR/D 7 D/WK FOR 18 MO (STUDY DURATION: 31 MO), Dose: 0, 12.5, 25, 50 UG/M3 AEROSOL 23 HR/D 7 D/WK FOR 18 MO (STUDY DURATION: 31 MO), Tumor Site: Type of Lesion: LUNG: ADENOMA, ADENOCARCINOMA, EPIDERMOID CARCINOMA active; positive | Strain/Sex: WISTAR/MALE, Route: INHALATION, Dose: 0, 30 MG/M3 AEROSOL 22 HR/D 7 D/WK FOR 18 MO (STUDY DURATION: 30 MO), Tumor Site: Type of Lesion: LUNG: ALVEOLAR/BRONCHIOLAR ADENOMA, ADENOCARCINOMA active; positive | Strain/Sex: WISTAR/MALE, Route: INHALATION, Dose: 0, 30 UG/M3 22 HR/D 7 D/WK FOR 18 MO (STUDY DURATION: 30 MO), Tumor Site: Type of Lesion: LUNG: ALVEOLAR/BRONCHIOLAR ADENOMA, ADENOCARCINOMA active; positive | Strain/Sex: WISTAR/MALE, Route: INHALATION, Dose: 0, 30 UG/M3 22 HR/D 7 D/WK FOR 18 MO (STUDY DURATION: 30 MO), Tumor Site: Type of Lesion: LUNG: TUMOR active; positive | Strain/Sex: WISTAR/MALE, Route: INHALATION, Dose: 0, 90 UG/M3 22 HR/D 7 D/WK FOR 6 MO (STUDY DURATION: 30 MO), Tumor Site: Type of Lesion: LUNG: ALVEOLAR/BRONCHIOLAR ADENOMA, ADENOCARCINOMA, SQUAMOUS CELL CARCINOMA active; positive | Strain/Sex: WISTAR/MALE, Route: INHALATION, Dose: 0, 90 UG/M3 22 HR/D 7 D/WK FOR 6 MO (STUDY DURATION: 30 MO), Tumor Site: Type of Lesion: LUNG: TUMOR active; positive | Strain/Sex: WISTAR/MALE, Route: INHALATION, Dose: 0, 90 UG/M3 AEROSOL 22 HR/D 7 D/WK FOR 6 MO (STUDY DURATION: 30 MO), Tumor Site: Type of Lesion: LUNG: ALVEOLAR/BRONCHIOLAR, ADENOCARCINOMA, SQUAMOUS CELL CARCINOMA active; positive | Strain/Sex: WISTAR/MALE, Route: SUBCUTANEOUS, Dose: 0, 0.03 MMOL/KG BW (5.5 MG/KG BW), SINGLE DOSE, Tumor Site: Type of Lesion: TESTES: INTERSTITIAL CELL TUMOR active; positive | Strain/Sex: WISTAR/MALE, Route: SUBCUTANEOUS, Dose: 0, 3 UMOL/KG BW ONCE, THEN 30 UMOL/KG BW 1X/WK FOR 17 WK BEGINNING 1 WK POST INITIAL DOSE (STUDY DURATION: 18 WK), Tumor Site: Type of Lesion: INJECTION SITE SARCOMA active; positive | Strain/Sex: WISTAR/MALE, Route: SUBCUTANEOUS, Dose: 0, 10, 20, 30 UMOL/KG BW 1X/WK FOR 18 WK (STUDY DURATION: 18 WK), Dose: 0, 10, 20, 30 UMOL/KG BW 1X/WK FOR 18 WK (STUDY DURATION: 18 WK), Tumor Site: Type of Lesion: INJECTION SITE SARCOMA active; positive | Strain/Sex: WISTAR/MALE, Route: SUBCUTANEOUS, Dose: 5.5 MG/KG ONCE, Tumor Site: Type of Lesion: INJECTION SITE: SARCOMA, TESTES: INTERSTITIAL CELL TUMOR active; positive | Strain/Sex: WISTAR, Route: SUBCUTANEOUS, Dose: 0, 0.03 MMOL/KG BW (5.5 MG/KG BW), SINGLE DOSE, OBSERVED 2 YR, Tumor Site: Type of Lesion: INJECTION SITE: SPINDLE CELL SARCOMA, TESTES: INTERSTITIAL CELL TUMOR active; positive | Strain/Sex: WISTAR, Route: SUBCUTANEOUS, Dose: 0, 0.03 MMOL/KG BW (5.5 MG/KG BW), SINGLE DOSE, Tumor Site: Type of Lesion: INJECTION SITE: SARCOMA, TESTES: INTERSTITIAL CELL TUMOR active; positive | Strain/Sex: WISTAR, Route: SUBCUTANEOUS, Dose: 0.02-0.03 MMOL/KG BW (3.7-5.5 MG/KG BW), SINGLE DOSE, Tumor Site: Type of Lesion: INJECTION SITE: FIBROSARCOMA, TESTES: INTERSTITIAL CELL TUMOR active; positive
